Patent publication US20210113586A1, “NEW USE AND METHODS OF MODULATING IMMUNE RESPONSES” (DIAMYD MEDICAL AB, priority 2018, published 2021)

How the values were obtained:
[1] = test system: PBMCs from ND individuals; details: Example 1, FIG. 1C; PBMCs of 15 healthy donors; 100 nM GABA
Method: (§1) Peripheral Blood Mononuclear cells (PBMCs) are isolated from blood from donors diagnosed with Type-1 diabetes and healthy controls. Alternatively, CD4-positive cells (T-cells) are further isolated from PBMCs by e.g. MACS beads, FACS or similar technology. […] A reasonable replication, such as 3 cultures of each condition, is performed. A normalized proliferation value for each culture is then calculated by a standard proliferation measurement method, such as by CFSE staining or radioactive thymidine incorporation (requiring additional factors be added during culture) or by staining for proliferation markers.
(§2) In the FIG. 1, the proliferation of cells retrieved from 13 T1D subjects and 15 healthy controls were inspected. […] A normalized proliferation index was calculated for each culture.
The proliferation of freshly isolated human PBMCs or CD4^+ T cells was evaluated with MTT (3-(4,5-Dimethylthiazol-2-yl)-2,5-Diphenyltetrazolium Bromide) assay (Ring et al., 2012). Cells were suspended in complete medium (RPMI 1640 supplemented with 2 mM glutamine, 25 mM HEPES, 10% heat inactivated fetal bovine serum, 100 U/ml penicillin, 10 mg/ml streptomycin, 5 mM R-mercaptoethanol) in a concentration 1 million cells per milliliter. […] The formazan crystal pellet was dissolved in DMSO and the plate was read within 10 min using a Multiskan MS plate reader (Labsystems) at 550 nm. […]

responder CD4+ T cells = assay: Multiplex PEA of cytokines released into culture medium by responder CD4+ T cells; assay type: cell-based, human
Method: (§3) The proliferation of freshly isolated human PBMCs or CD4^+ T cells was evaluated with MTT (3-(4,5-Dimethylthiazol-2-yl)-2,5-Diphenyltetrazolium Bromide) assay (Ring et al., 2012). Cells were suspended in complete medium (RPMI 1640 supplemented with 2 mM glutamine, 25 mM HEPES, 10% heat inactivated fetal bovine serum, 100 U/ml penicillin, 10 mg/ml streptomycin, 5 mM R-mercaptoethanol) in a concentration 1 million cells per milliliter. The assay was performed in 96-well plates in duplicates or triplicates, where each well was pre-coated with 3 μg/ml anti-CD3 antibody for 3-5 h at 37° C. Each well was loaded with 100,000 cells. Drugs were added to the wells at the relevant concentrations. The plate was incubated for 68 h at 37° C. (95% O2, 5% CO2) and then, a media-soluble tetrazolium dye MTT was added to a final concentration of 1 mM after which the plate was incubated for additional 4 h. The plate was then centrifuged at 2,000 RPM for 10 min to pellet the insoluble purple formazan crystals. The supernatant culture media was collected, stored at −80° C. and used for analysis of cytokines using the multiplex proximity extension assay (PEA). The formazan crystal pellet was dissolved in DMSO and the plate was read within 10 min using a Multiskan MS plate reader (Labsystems) at 550 nm. The optical density value was used as the proliferation index value. Drugs were purchased from Sigma-Aldrich or Tocris (Bristol, UK).
Plasma samples, and culture media samples that were collected from plate wells at the end of the proliferation assay, were analyzed by multiplex PEA with an Olink Inflammation […] panel, targeting 92 proteins related to inflammation (Olink Proteomics, Uppsala, Sweden) as previously described (Edvinsson et al., 2017, Assarsson et al., 2014, Larsson et al., 2015, Larssen et al., 2017). Briefly, 1 μl of sample (plasma samples or cell culture media samples) or negative control was mixed with 3 μl probe solution containing a set of 92 paires DNA-oligonucleotide-conjugated antibodies. Upon recognition of a target protein by a pair of probes, the DNA oligonucletodies on the antibodies are brought in proximity and hybridize to each other, followed by enzymatic DNA polymerization to form a new DNA molecule. The newly formed DNA molecule is then amplified and quantified using a microfluidic real-time qPCR, BioMark™ HD (Fluidigm, South San Francisco, Calif., USA). The generated quantification cycle (Cq) values are normalized against spiked-in controls to convert Cq values to Normalized Protein eXpression (NPX) value on log2 scale. NPX is an arbitrary unit, which is positively correlated to protein concentration. These NPX data were then converted to linear data, using the formula 2^NPX, prior to further statistical analysis. Limit of detection (LOD) for each protein was defined as three standard deviations above the background. Proteins with levels below LOD were excluded from further data analysis.

[2] = test system: PBMCs from T1D individuals; assay: Proliferation of anti-CD3 stimulated PBMCs from T1D donors; assay type: cell-based, human; details: Example 1, FIG. 1D; PBMCs from all 13 T1D donors; 100 nM GABA
Method: as §1, §2
as §3, with “The optical density value was used as the proliferation index value. Drugs were purchased from Sigma-Aldrich or Tocris (Bristol, UK).” left out

GABAA receptors = assay: Patch-clamp single-channel current recording in CD4+ T cells; assay type: cell-based, human; details: GABA 100 or 500 nM; n=54 cells; FIG. 3i
Method: GABA-activated currents were recorded by the patch-clamp technique as previously described (Bjurstom et al., 2008, Jin et al., 2011a). Extracellular recording solution contained (in mM): 145 NaCl, 3 KCl, 1 CsCl, 1 CaCl2, 1 MgCl2, 10 glucose and 10 TES; the pH was adjusted to 7.4 with NaOH. To record in the whole-cell configuration, the pipette solution contained (in mM): 136 CsCl, 20 KCl, 1 MgCl2, 3 MgATP and 10 TES; pH was adjusted to 7.3 with CsOH. The pipette solution for the cell-attached configuration contained (in mM): 69 NaCl, 5 KCl, 75 CsCl, 1 CaCl2, 1 MgCl2 and 10 TES; pH was adjusted to 7.4 with NaOH. […] The pipette potential (Vp) was −80 mV (hyperpolarizing) in the whole-cell configuration and −60 mV (depolarizing) in the cell-attached configuration.

[3] = GABA 100 nM, responder CD4+ T cells, normalized to control
[4] = GABA 500 nM, responder CD4+ T cells, normalized to control

For `NCCCC(=O)O` [GABA, gamma-aminobutyric acid], the “proliferation in the presence of GABA” value [1] was “did not proliferate differently”, the “number of cytokines whose release was significantly decreased” value (responder CD4+ T cells; 100 nM GABA) was 27 cytokines and the “number of cytokines whose release was significantly decreased” value (responder CD4+ T cells; 500 nM GABA) was 25 cytokines. For the same compound, the “4E-BP1 in culture medium, % Mean” value (responder CD4+ T cells; [3]) was 67.1%, the “ADA in culture medium, % Mean” value (responder CD4+ T cells; [3]) was 79.3% and the “CASP-8 in culture medium, % Mean” value (responder CD4+ T cells; [3]) was 66.3%. The “CCL19 in culture medium, % Mean” value (responder CD4+ T cells; [3]) was 68.7%, the “CCL20 in culture medium, % Mean” value (responder CD4+ T cells; [3]) was 61.5% and the “CSCP1 in culture medium, % Mean” value (responder CD4+ T cells; [3]) was 60.6%. For the same compound, the “CSF-1 in culture medium, % Mean” value (responder CD4+ T cells; [3]) was 84.2%, the “CXCL10 in culture medium, % Mean” value (responder CD4+ T cells; [3]) was 62.7% and the “CXCL11 in culture medium, % Mean” value (responder CD4+ T cells; [3]) was 69.1%. The “DNER in culture medium, % Mean” value (responder CD4+ T cells; [3]) was 94.6%, the “Flt3L in culture medium, % Mean” value (responder CD4+ T cells; [3]) was 79.3% and the “IL-6 in culture medium, % Mean” value (responder CD4+ T cells; [3]) was 71.6%. For the same compound, the “IL-13 in culture medium, % Mean” value (responder CD4+ T cells; [3]) was 69.9%, the “IL-18R1 in culture medium, % Mean” value (responder CD4+ T cells; [3]) was 76.1% and the “IL-24 in culture medium, % Mean” value (responder CD4+ T cells; [3]) was 71.8%. The “LAP TGF-beta-1 in culture medium, % Mean” value (responder CD4+ T cells; [3]) was 79.6%, the “LIF in culture medium, % Mean” value (responder CD4+ T cells; [3]) was 66.9% and the “MCP-1 in culture medium, % Mean” value (responder CD4+ T cells; [3]) was 76.9%. For the same compound, the “OPG in culture medium, % Mean” value (responder CD4+ T cells; [3]) was 70.5%, the “OSM in culture medium, % Mean” value (responder CD4+ T cells; [3]) was 76.4% and the “STAMPB in culture medium, % Mean” value (responder CD4+ T cells; [3]) was 68.6%. The “TNFRSF9 in culture medium, % Mean” value (responder CD4+ T cells; [3]) was 86.3%, the “TNFSF14 in culture medium, % Mean” value (responder CD4+ T cells; [3]) was 70.6% and the “TRAIL in culture medium, % Mean” value (responder CD4+ T cells; [3]) was 75.9%. For the same compound, the “TRANCE in culture medium, % Mean” value (responder CD4+ T cells; [3]) was 89.3%, the “μPA in culture medium, % Mean” value (responder CD4+ T cells; [3]) was 78.9% and the “4E-BP1 in culture medium, % Mean” value (responder CD4+ T cells; [4]) was 50.6%. The “CASP-8 in culture medium, % Mean” value (responder CD4+ T cells; [4]) was 61.4%, the “CCL19 in culture medium, % Mean” value (responder CD4+ T cells; [4]) was 59.9% and the “CCL20 in culture medium, % Mean” value (responder CD4+ T cells; [4]) was 66.0%. For the same compound, the “CD40 in culture medium, % Mean” value (responder CD4+ T cells; [4]) was 77.8%, the “CDCP1 in culture medium, % Mean” value (responder CD4+ T cells; [4]) was 44.3% and the “CXCL1 in culture medium, % Mean” value (responder CD4+ T cells; [4]) was 72.2%. The “CXCL5 in culture medium, % Mean” value (responder CD4+ T cells; [4]) was 66.0%, the “CXCL9 in culture medium, % Mean” value (responder CD4+ T cells; [4]) was 62.2% and the “CXCL10 in culture medium, % Mean” value (responder CD4+ T cells; [4]) was 60.6%. The “CXCL11 in culture medium, % Mean” value (responder CD4+ T cells; [4]) was 66.6%, the “DNER in culture medium, % Mean” value (responder CD4+ T cells; [4]) was 68.6% and the “IFM-gamma in culture medium, % Mean” value (responder CD4+ T cells; [4]) was 73.2%. The “IL-5 in culture medium, % Mean” value (responder CD4+ T cells; [4]) was 76.0%, the “IL-8 in culture medium, % Mean” value (responder CD4+ T cells; [4]) was 81.2% and the “IL-12B in culture medium, % Mean” value (responder CD4+ T cells; [4]) was 69.4%. The “IL-13 in culture medium, % Mean” value (responder CD4+ T cells; [4]) was 83.0%, the “IL-18R1 in culture medium, % Mean” value (responder CD4+ T cells; [4]) was 85.8% and the “OPG in culture medium, % Mean” value (responder CD4+ T cells; [4]) was 66.4%. For the same compound, the “SCF in culture medium, % Mean” value (responder CD4+ T cells; [4]) was 61.8%, the “STAMPB in culture medium, % Mean” value (responder CD4+ T cells; [4]) was 57.8% and the “TNF in culture medium, % Mean” value (responder CD4+ T cells; [4]) was 47.8%. For the same compound, the “TNFB in culture medium, % Mean” value (responder CD4+ T cells; [4]) was 69.0%, the “TNFSF14 in culture medium, % Mean” value (responder CD4+ T cells; [4]) was 60.0% and the “μPA in culture medium, % Mean” value (responder CD4+ T cells; [4]) was 68.0%. For the same compound, the “number of cytokines whose secretion was decreased in total” value (responder CD4+ T cells; responder group, concentration-dependent (100, 500 nM)) was 37 cytokines, the “proliferation in the presence of GABA” value [2] was “proliferated less” and the GABAA single-channel currents (GABAA receptors) was “activated”.
